Reference: ChEMBL document CHEMBL4507277

Columns and labels:
[1] = target: Serine/threonine-protein kinase ICK (Homo sapiens) (UniProt Q9UPZ9); settings: Compound concentration 1000.0 nM
[2] = target: Bone morphogenetic protein receptor type-1A (Homo sapiens) (UniProt P36894); settings: Compound concentration 1000.0 nM
[3] = target: Serine/threonine-protein kinase TAO2 (Homo sapiens) (UniProt Q9UL54); settings: Compound concentration 1000.0 nM
[4] = target: Mitogen-activated protein kinase kinase kinase kinase 4 (Homo sapiens) (UniProt O95819); settings: Compound concentration 1000.0 nM
[5] = target: Mitotic checkpoint serine/threonine-protein kinase BUB1 (Homo sapiens) (UniProt O43683); settings: Compound concentration 1000.0 nM
[6] = target: Tyrosine-protein kinase receptor TYRO3 (Homo sapiens) (UniProt Q06418); settings: Compound concentration 1000.0 nM
[7] = target: NUAK family SNF1-like kinase 1 (Homo sapiens) (UniProt O60285); settings: Compound concentration 1000.0 nM
[8] = target: Focal adhesion kinase 1 (Homo sapiens) (UniProt Q05397); settings: Compound concentration 1000.0 nM
[9] = target: Mitogen-activated protein kinase kinase kinase 4 (Homo sapiens) (UniProt Q9Y6R4); settings: Compound concentration 1000.0 nM
[10] = target: Wee1-like protein kinase (Homo sapiens) (UniProt P30291); settings: Compound concentration 1000.0 nM
[11] = target: Activin receptor type-1B (Homo sapiens) (UniProt P36896); settings: Compound concentration 1000.0 nM
Chain of Activin receptor type-1B (Homo sapiens) (P36896 whole entry): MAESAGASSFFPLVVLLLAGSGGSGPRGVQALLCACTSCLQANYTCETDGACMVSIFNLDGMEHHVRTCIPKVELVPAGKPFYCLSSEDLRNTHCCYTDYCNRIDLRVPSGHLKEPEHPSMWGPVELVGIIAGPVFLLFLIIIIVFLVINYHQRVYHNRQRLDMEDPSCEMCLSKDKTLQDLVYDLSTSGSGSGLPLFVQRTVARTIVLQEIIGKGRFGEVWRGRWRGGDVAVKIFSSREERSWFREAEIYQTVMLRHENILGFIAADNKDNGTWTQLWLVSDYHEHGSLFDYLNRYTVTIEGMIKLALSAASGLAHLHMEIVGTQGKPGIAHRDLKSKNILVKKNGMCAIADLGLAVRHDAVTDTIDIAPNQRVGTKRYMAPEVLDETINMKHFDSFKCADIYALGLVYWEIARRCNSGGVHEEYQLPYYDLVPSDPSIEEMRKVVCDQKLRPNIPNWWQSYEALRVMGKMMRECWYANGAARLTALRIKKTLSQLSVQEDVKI

[12] = target: Ephrin type-A receptor 7 (Homo sapiens) (UniProt Q15375); settings: Compound concentration 1000.0 nM
[13] = target: Muscarinic acetylcholine receptor M2 (Homo sapiens) (UniProt P08172); settings: Compound concentration 10.0 uM
[14] = target: Death-associated protein kinase 2 (Homo sapiens) (UniProt Q9UIK4); settings: Compound concentration 1000.0 nM
[15] = target: Serine/threonine-protein kinase ULK3 (Homo sapiens) (UniProt Q6PHR2); settings: Compound concentration 1000.0 nM
[16] = target: Phosphatidylinositol 5-phosphate 4-kinase type-2 beta (Homo sapiens) (UniProt P78356); settings: Compound concentration 1000.0 nM
[17] = test system: Receptor-type tyrosine-protein kinase FLT3 (Homo sapiens), P36888 [D835Y]; settings: Compound concentration 1000.0 nM
[18] = test system: Mast/stem cell growth factor receptor Kit (Homo sapiens), P10721 [D816V]; settings: Compound concentration 1000.0 nM
[19] = target: AP2-associated protein kinase 1 (Homo sapiens) (UniProt Q2M2I8); settings: Compound concentration 1000.0 nM
[20] = target: Serine/threonine-protein kinase NIM1 (Homo sapiens) (UniProt Q8IY84); settings: Compound concentration 1000.0 nM
[21] = target: Mitogen-activated protein kinase kinase kinase 9 (Homo sapiens) (UniProt P80192); settings: Compound concentration 1000.0 nM
[22] = target: Serine/threonine-protein kinase pim-3 (Homo sapiens) (UniProt Q86V86); settings: Compound concentration 1000.0 nM
[23] = target: Fibroblast growth factor receptor 3 (Homo sapiens) (UniProt P22607); settings: Compound concentration 1000.0 nM
[24] = target: Homeodomain-interacting protein kinase 3 (Homo sapiens) (UniProt Q9H422); settings: Compound concentration 1000.0 nM
[25] = target: Serine/threonine-protein kinase PRP4 homolog (Homo sapiens) (UniProt Q13523); settings: Compound concentration 1000.0 nM
[26] = target: Glycogen synthase kinase-3 beta (Homo sapiens) (UniProt P49841); settings: Compound concentration 1000.0 nM
[27] = target: Interleukin-1 receptor-associated kinase 1 (Homo sapiens) (UniProt P51617); settings: Compound concentration 1000.0 nM
Chain of Interleukin-1 receptor-associated kinase 1 (Homo sapiens) (P51617 whole entry, looked up): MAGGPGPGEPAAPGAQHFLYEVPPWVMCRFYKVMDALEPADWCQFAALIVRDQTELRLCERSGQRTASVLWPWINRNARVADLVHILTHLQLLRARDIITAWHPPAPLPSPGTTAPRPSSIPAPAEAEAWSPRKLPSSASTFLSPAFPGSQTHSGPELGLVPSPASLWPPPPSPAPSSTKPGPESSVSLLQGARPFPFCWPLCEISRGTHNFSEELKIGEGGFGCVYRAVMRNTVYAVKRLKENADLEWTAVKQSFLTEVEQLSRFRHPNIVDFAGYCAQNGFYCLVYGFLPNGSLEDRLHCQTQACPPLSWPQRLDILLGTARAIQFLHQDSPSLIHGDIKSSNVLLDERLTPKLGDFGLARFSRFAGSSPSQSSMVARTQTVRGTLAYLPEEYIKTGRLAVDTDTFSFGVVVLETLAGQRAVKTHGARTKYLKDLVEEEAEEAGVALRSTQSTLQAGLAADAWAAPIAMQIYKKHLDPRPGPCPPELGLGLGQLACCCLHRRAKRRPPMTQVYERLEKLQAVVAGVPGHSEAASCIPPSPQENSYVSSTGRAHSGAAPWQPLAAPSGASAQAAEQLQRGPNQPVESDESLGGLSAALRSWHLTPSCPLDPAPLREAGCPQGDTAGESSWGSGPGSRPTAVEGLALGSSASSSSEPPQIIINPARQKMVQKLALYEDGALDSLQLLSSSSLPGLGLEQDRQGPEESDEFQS

[28] = target: Cyclin-G-associated kinase (Homo sapiens) (UniProt O14976); settings: Compound concentration 1000.0 nM
[29] = target: Fibroblast growth factor receptor 1 (Homo sapiens) (UniProt P11362); settings: Compound concentration 1000.0 nM
[30] = target: Tyrosine-protein kinase JAK1 (Homo sapiens) (UniProt P23458); settings: Compound concentration 1000.0 nM
[31] = target: Histamine H1 receptor (Homo sapiens) (UniProt P35367); settings: Compound concentration 10.0 uM
[32] = target: Glycogen synthase kinase-3 alpha (Homo sapiens) (UniProt P49840); settings: Compound concentration 1000.0 nM
[33] = target: Serine/threonine-protein kinase OSR1 (Homo sapiens) (UniProt O95747); settings: Compound concentration 1000.0 nM
[34] = target: Alpha-2C adrenergic receptor (Homo sapiens) (UniProt P18825); settings: Compound concentration 10.0 uM
[35] = target: Serine/threonine-protein kinase Nek7 (Homo sapiens) (UniProt Q8TDX7); settings: Compound concentration 1000.0 nM
[36] = target: Cyclin-dependent kinase 11A (Homo sapiens) (UniProt Q9UQ88); settings: Compound concentration 1000.0 nM
[37] = target: Inhibitor of nuclear factor kappa-B kinase subunit beta (Homo sapiens) (UniProt O14920); settings: Compound concentration 1000.0 nM
[38] = target: Cyclin-dependent kinase 9 (Homo sapiens) (UniProt P50750); settings: Compound concentration 1000.0 nM
[39] = target: Mitogen-activated protein kinase kinase kinase 7 (Homo sapiens) (UniProt O43318); settings: Compound concentration 1000.0 nM
Chain of Mitogen-activated protein kinase kinase kinase 7 (Homo sapiens) (O43318 whole entry): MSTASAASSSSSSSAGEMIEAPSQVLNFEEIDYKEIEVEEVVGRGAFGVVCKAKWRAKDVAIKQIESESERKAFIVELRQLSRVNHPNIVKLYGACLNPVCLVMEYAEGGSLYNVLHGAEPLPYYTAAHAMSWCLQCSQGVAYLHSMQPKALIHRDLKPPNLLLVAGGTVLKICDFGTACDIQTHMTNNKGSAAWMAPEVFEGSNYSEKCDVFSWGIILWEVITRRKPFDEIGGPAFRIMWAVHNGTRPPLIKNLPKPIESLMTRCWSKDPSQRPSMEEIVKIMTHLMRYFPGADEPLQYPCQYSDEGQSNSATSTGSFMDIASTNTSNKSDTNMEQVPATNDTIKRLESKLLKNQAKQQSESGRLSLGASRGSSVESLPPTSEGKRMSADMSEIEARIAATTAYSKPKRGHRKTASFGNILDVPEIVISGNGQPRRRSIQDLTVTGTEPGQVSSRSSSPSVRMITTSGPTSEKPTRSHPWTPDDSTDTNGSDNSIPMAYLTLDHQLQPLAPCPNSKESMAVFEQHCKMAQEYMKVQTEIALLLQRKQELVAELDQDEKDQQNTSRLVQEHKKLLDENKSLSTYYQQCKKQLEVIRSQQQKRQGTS

[40] = test system: Epidermal growth factor receptor (Homo sapiens), P00533 [L858R,T790M]; settings: Compound concentration 1000.0 nM
[41] = target: Aurora kinase A (Homo sapiens) (UniProt O14965); settings: Compound concentration 1000.0 nM
[42] = target: Tyrosine-protein kinase HCK (Homo sapiens) (UniProt P08631); settings: Compound concentration 1000.0 nM
Chain of Tyrosine-protein kinase HCK (Homo sapiens) (P08631 2-526 limits assumed): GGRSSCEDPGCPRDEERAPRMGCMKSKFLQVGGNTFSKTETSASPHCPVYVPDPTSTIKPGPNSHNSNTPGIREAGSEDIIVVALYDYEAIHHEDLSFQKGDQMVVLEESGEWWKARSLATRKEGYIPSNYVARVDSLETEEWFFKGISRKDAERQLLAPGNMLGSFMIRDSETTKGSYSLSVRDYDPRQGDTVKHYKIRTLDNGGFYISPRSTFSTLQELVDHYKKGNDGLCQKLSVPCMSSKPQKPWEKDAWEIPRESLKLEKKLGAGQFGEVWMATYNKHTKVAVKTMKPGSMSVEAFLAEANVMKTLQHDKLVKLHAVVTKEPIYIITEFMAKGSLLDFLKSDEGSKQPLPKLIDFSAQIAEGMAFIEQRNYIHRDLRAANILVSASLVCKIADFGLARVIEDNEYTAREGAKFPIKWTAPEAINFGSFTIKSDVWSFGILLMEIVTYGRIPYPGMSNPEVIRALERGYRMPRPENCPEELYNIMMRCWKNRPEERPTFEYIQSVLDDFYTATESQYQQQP

[43] = target: Tyrosine-protein kinase Fgr (Homo sapiens) (UniProt P09769); settings: Compound concentration 1000.0 nM
[44] = target: Phosphatidylinositol 4,5-bisphosphate 3-kinase catalytic subunit gamma isoform (Homo sapiens) (UniProt P48736); settings: Compound concentration 1000.0 nM
Chain of Phosphatidylinositol 4,5-bisphosphate 3-kinase catalytic subunit gamma isoform (Homo sapiens) (P48736 whole entry, looked up, canonical isoform): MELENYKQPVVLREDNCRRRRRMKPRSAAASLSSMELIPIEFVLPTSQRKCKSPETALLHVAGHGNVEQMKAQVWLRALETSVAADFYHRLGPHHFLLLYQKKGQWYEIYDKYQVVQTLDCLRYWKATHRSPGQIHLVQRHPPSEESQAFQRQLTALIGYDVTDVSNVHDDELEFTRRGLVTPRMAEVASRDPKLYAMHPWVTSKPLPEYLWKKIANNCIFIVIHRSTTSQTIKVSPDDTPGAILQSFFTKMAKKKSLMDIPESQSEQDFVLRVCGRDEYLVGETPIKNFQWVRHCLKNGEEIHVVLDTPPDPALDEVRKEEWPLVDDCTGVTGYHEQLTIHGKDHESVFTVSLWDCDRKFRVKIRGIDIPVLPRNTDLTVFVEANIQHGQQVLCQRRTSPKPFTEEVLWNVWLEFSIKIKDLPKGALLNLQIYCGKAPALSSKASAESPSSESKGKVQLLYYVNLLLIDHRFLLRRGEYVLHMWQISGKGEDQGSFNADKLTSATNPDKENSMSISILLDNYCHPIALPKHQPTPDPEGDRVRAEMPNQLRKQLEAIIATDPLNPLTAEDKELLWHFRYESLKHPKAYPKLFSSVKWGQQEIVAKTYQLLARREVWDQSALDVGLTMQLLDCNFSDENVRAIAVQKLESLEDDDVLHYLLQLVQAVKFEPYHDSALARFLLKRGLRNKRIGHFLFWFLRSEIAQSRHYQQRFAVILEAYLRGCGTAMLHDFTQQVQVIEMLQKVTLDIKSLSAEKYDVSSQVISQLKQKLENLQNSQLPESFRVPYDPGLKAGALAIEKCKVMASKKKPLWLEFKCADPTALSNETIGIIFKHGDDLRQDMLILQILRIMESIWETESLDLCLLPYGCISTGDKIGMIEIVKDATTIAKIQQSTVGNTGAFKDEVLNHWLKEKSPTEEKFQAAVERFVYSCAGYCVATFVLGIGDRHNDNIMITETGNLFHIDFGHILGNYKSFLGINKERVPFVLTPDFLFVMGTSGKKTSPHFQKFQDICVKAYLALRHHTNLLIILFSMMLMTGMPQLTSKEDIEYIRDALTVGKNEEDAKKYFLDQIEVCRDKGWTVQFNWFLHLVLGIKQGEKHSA

[45] = target: Insulin receptor (Homo sapiens) (UniProt P06213); settings: Compound concentration 1000.0 nM
Chain of Insulin receptor (Homo sapiens) (P06213 28-758 limits assumed): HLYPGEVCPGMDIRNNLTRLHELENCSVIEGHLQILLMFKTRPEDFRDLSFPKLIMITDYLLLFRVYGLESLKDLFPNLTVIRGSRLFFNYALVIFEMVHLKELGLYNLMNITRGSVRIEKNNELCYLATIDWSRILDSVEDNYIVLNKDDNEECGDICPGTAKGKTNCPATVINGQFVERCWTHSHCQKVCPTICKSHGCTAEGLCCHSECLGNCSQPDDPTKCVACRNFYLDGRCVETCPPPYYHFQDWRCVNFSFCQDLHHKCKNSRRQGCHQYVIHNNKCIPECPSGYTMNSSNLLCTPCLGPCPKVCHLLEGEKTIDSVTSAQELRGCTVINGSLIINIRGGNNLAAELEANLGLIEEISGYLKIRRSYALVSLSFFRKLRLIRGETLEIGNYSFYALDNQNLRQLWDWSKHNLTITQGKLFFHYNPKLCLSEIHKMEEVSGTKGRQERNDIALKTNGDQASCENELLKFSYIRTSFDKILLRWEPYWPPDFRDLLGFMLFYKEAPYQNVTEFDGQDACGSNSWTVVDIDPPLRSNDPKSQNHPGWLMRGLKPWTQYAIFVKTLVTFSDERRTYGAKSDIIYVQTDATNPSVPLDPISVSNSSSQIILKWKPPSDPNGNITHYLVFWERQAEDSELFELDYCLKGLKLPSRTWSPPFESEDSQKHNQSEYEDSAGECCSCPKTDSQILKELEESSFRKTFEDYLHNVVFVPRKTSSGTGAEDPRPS
Chain of Insulin receptor (Homo sapiens) (P06213 763-1382 limits assumed): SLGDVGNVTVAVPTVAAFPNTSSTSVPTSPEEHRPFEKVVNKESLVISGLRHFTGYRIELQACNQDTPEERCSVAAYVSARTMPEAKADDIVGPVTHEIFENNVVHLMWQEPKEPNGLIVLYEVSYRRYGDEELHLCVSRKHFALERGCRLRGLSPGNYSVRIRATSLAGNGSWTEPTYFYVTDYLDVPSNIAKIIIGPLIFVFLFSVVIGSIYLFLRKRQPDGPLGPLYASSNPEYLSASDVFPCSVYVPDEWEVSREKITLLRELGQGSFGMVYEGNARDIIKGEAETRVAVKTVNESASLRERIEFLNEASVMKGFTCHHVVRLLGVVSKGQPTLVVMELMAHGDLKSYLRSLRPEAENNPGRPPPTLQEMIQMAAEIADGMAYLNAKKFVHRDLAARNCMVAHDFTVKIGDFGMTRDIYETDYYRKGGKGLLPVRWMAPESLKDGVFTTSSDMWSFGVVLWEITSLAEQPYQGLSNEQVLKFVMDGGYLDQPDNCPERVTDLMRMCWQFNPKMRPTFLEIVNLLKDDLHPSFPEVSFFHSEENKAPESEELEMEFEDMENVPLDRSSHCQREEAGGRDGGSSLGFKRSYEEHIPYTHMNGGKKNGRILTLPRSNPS

CCS(=O)(=O)c1cc2cc(C[C@](O)(CC(C)(C)c3ccc(F)cc3C(N)=O)C(F)(F)F)[nH]c2cn1
inactive: residual activity [1] 100% | residual activity [2] 100% | residual activity [3] 85% | residual activity [4] 92% | residual activity [5] 86% | residual activity [6] 81% | residual activity [7] 100% | residual activity [8] 97% | residual activity [9] 93% | residual activity [10] 100% | residual activity [11] 100% | residual activity [12] 86% | inhibition [13] -0.48% | residual activity [14] 90% | residual activity [15] 100% | residual activity [16] 96% | residual activity [17] 100% | residual activity [18] 100% | residual activity [19] 100% | residual activity [20] 100% | residual activity [21] 98% | residual activity [22] 100% | residual activity [23] 100% | residual activity [24] 100% | residual activity [25] 98% | residual activity [26] 100% | residual activity [27] 99% | residual activity [28] 100% | residual activity [29] 94% | residual activity [30] 96% | inhibition [31] 4.27% | residual activity [32] 100% | residual activity [33] 90% | inhibition [34] -1.88% | residual activity [35] 100% | residual activity [36] 100% | residual activity [37] 91% | residual activity [38] 100% | residual activity [39] 100% | residual activity [40] 83% | residual activity [41] 88% | residual activity [42] 100% | residual activity [43] 100% | residual activity [44] 80% | residual activity [45] 94%

CCS(=O)(=O)c1cc2cc(C[C@@](O)(CC(C)(C)c3ccc(F)cc3C(N)=O)C(F)(F)F)[nH]c2cn1
inactive: residual activity [1] 97% | residual activity [2] 100% | residual activity [3] 76% | residual activity [4] 85% | residual activity [5] 66% | residual activity [6] 92% | residual activity [7] 77% | residual activity [8] 100% | residual activity [9] 93% | residual activity [10] 100% | residual activity [11] 100% | residual activity [12] 94% | inhibition [13] -8.82% | residual activity [14] 100% | residual activity [15] 98% | residual activity [16] 85% | residual activity [17] 99% | residual activity [18] 90% | residual activity [19] 100% | residual activity [20] 51% | residual activity [21] 96% | residual activity [22] 100% | residual activity [23] 80% | residual activity [24] 65% | residual activity [25] 80% | residual activity [26] 90% | residual activity [27] 80% | residual activity [28] 71% | residual activity [29] 95% | residual activity [30] 89% | inhibition [31] 6.19% | residual activity [32] 100% | residual activity [33] 88% | inhibition [34] 5.83% | residual activity [35] 95% | residual activity [36] 100% | residual activity [37] 83% | residual activity [38] 78% | residual activity [39] 92% | residual activity [40] 83% | residual activity [41] 88% | residual activity [42] 100% | residual activity [43] 88% | residual activity [44] 78% | residual activity [45] 86%
